# Source: patent US12195427B2, “MASP-2 inhibitors and methods of use” (priority 2018, dated 2025)
# Counter-ions that a name gives are not always drawn.
# Target: MASP-2 CCP2-SP (Homo sapiens (Human), UniProt O00187)
# Assay: MASP-2 co-crystallization, X-ray crystallography and structure analysis (H-bonds, van der Waals contacts);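 on Ligand-pharmacophore element distance, pharmacophore element C2: distance from averaged pharmacophore element to bound ligand; missing value means element absent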;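 on Ligand-pharmacophore element distance, pharmacophore element C3: distance from averaged pharmacophore element to bound ligand; missing value means element absent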;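 on Ligand-pharmacophore element distance, pharmacophore element C4: distance from averaged pharmacophore element to bound ligand; missing value means element absent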;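 on Ligand-pharmacophore element distance, pharmacophore element C5: distance from averaged pharmacophore element to bound ligand; missing value means element absent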
# Set-up: van der Waals contact distance, MASP-2 HIS 483 atom CD2 / van der Waals contact distance, MASP-2 HIS 483 atom NE2 / van der Waals contact distance, SER 654 C to compound atom / van der Waals contact distance, SER 654 O to compound atom / van der Waals contact distance, TRP 655 C to compound atom / van der Waals contact distance, MASP-2 GLY 528 atom CA / van der Waals contact distance TRP 655 atom CZ3 / van der Waals contact distance TRP 655 atom N / van der Waals contact distance TRP 655 atom CE3 / van der Waals contact distance GLY 656 atom C / van der Waals contact distance GLY 656 atom CA / van der Waals contact distance GLY 656 atom O / van der Waals contact distance, MASP-2 TYR 607 atom CD1 / van der Waals contact distance, MASP-2 PRO 606 atom O / d(C3,CA1) / d(CA1,N1)2 / d(H4,O1) / d(H4,O2) / d(O1,O2) / d(CA1,O2) / d(CA6,O1) / d(CA6,O2) / d(CA1,C5) / d(O2,H3) / d(N2,C2) / d(CA5,N2) / d(N2,C4) / d(N2,C6) / d(N2,CA3) / d(N2,O3) / d(O4,H2): unit not given beside the values
# Details: for H-bond distance to MASP-2 GLY 656 atom N: GLY 656 N; for H-bond distance to MASP-2 SER 654 atom O: SER 654 O; for van der Waals contact distance, MASP-2 HIS 483 atom CD2 / van der Waals contact distance, MASP-2 HIS 483 atom NE2: Table A2-1; for van der Waals contact distance, VAL 653 CG1 to compound atom: Table A2-11; for van der Waals contact distance TRP 655 atom CE3: MASP-2 TRP 655 CE3, compound atom in line below; for van der Waals contact distance TRP 655 atom CZ3: MASP-2 TRP 655 CZ3; for Ligand-pharmacophore element distance, pharmacophore element C2 / Ligand-pharmacophore element distance, pharmacophore element C3 / Ligand-pharmacophore element distance, pharmacophore element C4 / Ligand-pharmacophore element distance, pharmacophore element C5 / Ligand-pharmacophore element distance, pharmacophore element C6 / Ligand-pharmacophore element distance, pharmacophore element C7 / Ligand-pharmacophore element distance, pharmacophore element CA1 / Ligand-pharmacophore element distance, pharmacophore element CA2 / Ligand-pharmacophore element distance, pharmacophore element CA3 / Ligand-pharmacophore element distance, pharmacophore element CA4 / Ligand-pharmacophore element distance, pharmacophore element CA5 / Ligand-pharmacophore element distance, pharmacophore element CA6: Table A4-1; for d(N2,C2) / d(N2,CA2) / d(O2,H3) / d(O2,N2): Table A5-2 pharmacophore distance, S3/S4 region; for a(O1, O2, H3) / a(O1, O2, N2) / a(O2, N2, C2) / a(O2, N2, CA2): Table A6-2 pharmacophore angle; for Pharmacophore torsion angle a(O1, O2, N2, CA2): Table A7-2
# Method in brief: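 Human MASP-2 CCP2-SP (± 6His) expressed in E. coli and crystallized; crystals soaked in crystallization solution containing inhibitor, cryoprotected with 20% glycerol or frozen directly. Synchrotron data at 1.0 wavelength; molecular replacement from 1Q3X, partial refinement; one ligand pose analyzed; LigPlot+ contacts may include H-bonds.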
# [1] = Table A5-1 pharmacophore: distance between elements, S2/S1 region
# [2] = Table A7-1, between pharmacophore elements of the bound compound
# [3] = between pharmacophore elements of the bound compound
# MASP-2 CCP2-SP, sequence (O00187 445-686): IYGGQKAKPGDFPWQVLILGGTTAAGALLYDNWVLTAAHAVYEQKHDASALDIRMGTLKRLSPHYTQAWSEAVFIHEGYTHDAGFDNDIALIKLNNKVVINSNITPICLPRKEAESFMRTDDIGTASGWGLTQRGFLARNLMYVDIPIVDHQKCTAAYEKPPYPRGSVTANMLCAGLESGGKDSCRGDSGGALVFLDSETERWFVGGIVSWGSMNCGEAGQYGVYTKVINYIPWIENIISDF
# MASP-2 CCP2-SP, sequence (O00187 364-432 partner): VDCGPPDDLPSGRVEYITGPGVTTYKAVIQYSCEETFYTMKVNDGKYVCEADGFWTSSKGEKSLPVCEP
structure (smiles),measurement,setting,value
"Cc1nc(N)ccc1CNC(=O)[C@H](C)NC(=O)[C@H]1C[C@@H](c2ccccc2)CCN1CCC(=O)O [compound 1411, 3-((2R,4S)-2-(((S)-1-(((6-Amino-2-methylpyridin-3-yl)methyl)amino)-1-oxopropan-2-yl)carbamoyl)-4-phenylpiperidin-1-yl)propanoic acid Trifluoroacetate salt]",H-bond distance to MASP-2 ARG 630 atom NE,"Table A1 (H-Bonds), ARG 630 NE",2.66
same,H-bond distance to MASP-2 ASP 627 atom OD2,"Table A1 (H-Bonds), ASP 627 OD2",3.17
same,H-bond distance to MASP-2 GLY 656 atom N,Table A1 (H-Bonds),3.07
same,H-bond distance to MASP-2 SER 628 atom O,"Table A1 (H-Bonds), SER 628 O",3.2
same,H-bond distance to MASP-2 SER 654 atom O,Table A1 (H-Bonds),3.06
same,H-bond distance to MASP-2 SER 657 atom O,"Table A1 (H-Bonds), SER 657 O",2.61
same,"van der Waals contact distance, MASP-2 amino acid atom to compound atom",Table A2,3.8
same,"van der Waals contact distance, MASP-2 HIS 483 atom CD2",,3.51
same,"van der Waals contact distance, MASP-2 HIS 483 atom NE2",,3.46
same,"van der Waals contact distance, MASP-2 GLY 528 atom CA",Table A2-2,3.85
same,"van der Waals contact distance, MASP-2 PHE 529 atom CE1",Table A2-3,3.69
same,"van der Waals contact distance, VAL 653 CG1 to compound atom",,3.52
same,van der Waals contact distance TRP 655 atom CE3,Table A2-13,3.6
same,van der Waals contact distance TRP 655 atom CZ3,Table A2-13,3.57
same,"Ligand-pharmacophore element distance, pharmacophore element C2",,0.42
same,"Ligand-pharmacophore element distance, pharmacophore element C3",,0.32
same,"Ligand-pharmacophore element distance, pharmacophore element C4",,0
same,"Ligand-pharmacophore element distance, pharmacophore element C5",,0
same,"Ligand-pharmacophore element distance, pharmacophore element C6",,0
same,"Ligand-pharmacophore element distance, pharmacophore element C7",,0
same,"Ligand-pharmacophore element distance, pharmacophore element CA1",,0.71
same,"Ligand-pharmacophore element distance, pharmacophore element CA2",,0.52
same,"Ligand-pharmacophore element distance, pharmacophore element CA3",,0
same,"Ligand-pharmacophore element distance, pharmacophore element CA4",,0
same,"Ligand-pharmacophore element distance, pharmacophore element CA5",,0
same,"Ligand-pharmacophore element distance, pharmacophore element CA6",,0
same,"d(C3,CA1)",[1],2.87
same,"d(CA1,N1)2",[1],1.34
same,"d(CA1,O1)",[1],4.37
same,"d(CA1,O2)",[1],4.05
same,"d(H4,O1)",[1],4.34
same,"d(H4,O2)",[1],3.90
same,"d(O1,O2)",[1],3.50
same,"d(N2,C2)",,1.46
same,"d(N2,CA2)",,5.72
same,"d(O2,H3)",,4.13
same,"d(O2,N2)",,2.68
same,"a(C3, CA1, O1)",Table A6-1 pharmacophore angle,149.02
same,"a(CA1, O1, O2)",Table A6-1 pharmacophore angle,109.85
same,"a(O1, O2, H4)",Table A6-1 pharmacophore angle,130.04
same,"a(N1, CA1, O1) b)","Table A6-1 pharmacophore angle, Methyl-amino-pyridine compounds",173.43
same,"a(O1, O2, H3)",,142.75
same,"a(O1, O2, N2)",,140.47
same,"a(O2, N2, C2)",,130.32
same,"a(O2, N2, CA2)",,155.94
same,"Pharmacophore torsion angle a(C3, CA1, O1, H4)",[2],24.51
same,"Pharmacophore torsion angle a(H4, O1, O2, H3)",[2],55.16
same,"Pharmacophore torsion angle a(H4, O1, O2, N2)",[2],137.13
same,"Pharmacophore torsion angle a(N1, CA1, O1, H4)",[2],−2.21
same,"Pharmacophore torsion angle a(O1, H4, O2, CA1)",[2],−82.11
same,"Pharmacophore torsion angle a(O1, O2, N2, C2)",[2],117.46
same,"Pharmacophore torsion angle a(O1, O2, N2, CA2)",[3],127.52
"C[C@H](NC(=O)[C@H]1C[C@@H](c2ccccc2)CCN1)C(=O)NCc1cnc2[nH]cc(Cl)c2c1 [compound 1433, (2R,4S)—N—((S)-1-(((3-Chloro-1H-pyrrolo[2,3-b]pyridin-5-yl)methyl)amino)-1-oxopropan-2-yl)-4-phenylpiperidine-2-carboxamide]",H-bond distance to MASP-2 GLY 656 atom N,Table A1 (H-Bonds),3.13
same,H-bond distance to MASP-2 GLY 656 atom O,"Table A1 (H-Bonds), GLY 656 O",2.75
same,H-bond distance to MASP-2 SER 654 atom O,Table A1 (H-Bonds),2.89
same,"van der Waals contact distance, MASP-2 HIS 483 atom CD2",,3.73
same,"van der Waals contact distance, MASP-2 HIS 483 atom NE2",,3.76
same,"van der Waals contact distance, MASP-2 PHE 529 atom CE1",Table A2-3,3.77
same,"van der Waals contact distance, MASP-2 PHE 529 atom CE2",Table A2-3,3.82
same,"van der Waals contact distance, MASP-2 amino acid atom to compound atom","Table A2-5: TYR 607 (CE1, CE2, OH), PRO 608 (CD, CG), SER 611 (CA)",3.73
same,"van der Waals contact distance, MASP-2 amino acid atom to compound atom","Table A2-9 second part, ARG 630, AA atoms N, NE, NH1",3.49
same,"van der Waals contact distance, VAL 653 CG1 to compound atom",,3.71
same,van der Waals contact distance TRP 655 atom CE3,Table A2-13,3.59
same,van der Waals contact distance TRP 655 atom CZ3,Table A2-13,3.73
same,van der Waals contact distance TRP 655 atom N,"Table A2-13, MASP-2 TRP 655 N",3.68
same,"Ligand-pharmacophore element distance, pharmacophore element C2",,0.26
same,"Ligand-pharmacophore element distance, pharmacophore element C3",,0
same,"Ligand-pharmacophore element distance, pharmacophore element C4",,0
same,"Ligand-pharmacophore element distance, pharmacophore element C5",,0.2
same,"Ligand-pharmacophore element distance, pharmacophore element C6",,0
same,"Ligand-pharmacophore element distance, pharmacophore element C7",,0
same,"Ligand-pharmacophore element distance, pharmacophore element CA1",,0.98
same,"Ligand-pharmacophore element distance, pharmacophore element CA2",,0.18
same,"Ligand-pharmacophore element distance, pharmacophore element CA3",,0
same,"Ligand-pharmacophore element distance, pharmacophore element CA4",,0
same,"Ligand-pharmacophore element distance, pharmacophore element CA5",,0
same,"Ligand-pharmacophore element distance, pharmacophore element CA6",,0
same,"d(CA1,C5)",[1],3.47
same,"d(CA1,O1)",[1],5.49
same,"d(CA1,O2)",[1],4.76
same,"d(CA1,O4)",[1],1.77
same,"d(H4,O1)",[1],3.16
same,"d(H4,O2)",[1],3.59
same,"d(O1,O2)",[1],3.46
same,"d(N2,C2)",,1.51
same,"d(N2,CA2)",,5.79
same,"d(O2,H3)",,2.89
same,"d(O2,N2)",,2.65
same,"a(C5, CA1, O1)",Table A6-1 pharmacophore angle,151.25
same,"a(CA1, O1, O2)",Table A6-1 pharmacophore angle,97.80
same,"a(O1, CA1, O4)",Table A6-1 pharmacophore angle,65.77
same,"a(O1, O2, H4)",Table A6-1 pharmacophore angle,118.66
same,"a(O1, O2, H3)",,135.90
same,"a(O1, O2, N2)",,141.60
same,"a(O2, N2, C2)",,129.89
same,"a(O2, N2, CA2)",,155.75
same,"Pharmacophore torsion angle a(C5, CA1, O1, H4)",[2],6.40
same,"Pharmacophore torsion angle a(H4, O1, O2, H3)",[2],109.26
same,"Pharmacophore torsion angle a(H4, O1, O2, N2)",[2],−171.69
same,"Pharmacophore torsion angle a(O1, H4, O2, CA1)",[2],−96.26
same,"Pharmacophore torsion angle a(O1, O2, N2, C2)",[2],118.46
same,"Pharmacophore torsion angle a(O1, O2, N2, CA2)",[3],127.94
